Assay results as given in US20100267561A1, “HERBICIDAL PYRIDAZINONE DERIVATIVES” (priority 2007, published 2010).

Key:
Assay type in all cases: in vivo
[1] = system: giant foxtail (Setaria faberi); test: Test A pre-/postemergence plant response
Method in brief: (§1)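 Seeds were planted in blended loam soil and sand, then treated preemergence by directed soil spray. At that time, emerged plants (one- to two-leaf, 2–10 cm) received postemergence applications of the same surfactant-containing formulation. Injury was assessed visually on a 0–100 scale after approximately 10 days.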

[2] = system: velvetleaf (Abutilon theophrasti); test: Test A pre-/postemergence plant response
Method in brief: as §1

[3] = system: wheat (Triticum aestivum); test: Test A pre-/postemergence plant response
Method in brief: as §1

[4] = system: Italian ryegrass (Lolium multiflorum); test: Test C pre-/postemergence plant response
Description: (§2) Seeds of plant species selected from annual bluegrass (Poa annua), blackgrass (Alopecurus myosuroides), canola (Brassica rapa), downy bromegrass (Bromus tectorum), green foxtail (Setaria viridis), Italian ryegrass (Lolium multiflorum), canarygrass (Phalaris minor), pigweed (Amaranthus retroflexus), spring barley (Hordeum vulgare), spring wheat (Triticum aestivum), wild mustard (Sinapis arvensis), wild oat (Avena fatua), windgrass (Apera spica-venti), winter barley (Hordeum vulgare), and winter wheat (Triticum aestivum) were planted and treated preemergence with test chemicals formulated in a non-phytotoxic solvent mixture which included a surfactant. At the same time, plants selected from these crop and weed species were treated with postemergence applications of some of the test chemicals formulated in the same manner. Plants ranged in height from 2 to 18 cm (1- to 4-leaf stage) for postemergence treatments.
(§3) Treated plants and controls were maintained in a controlled growth environment for 15 to 25 days after which time all species were compared to controls and visually evaluated. Plant response ratings, summarized in Table C, are based on a scale of 0 to 100 where 0 is no effect and 100 is complete control. A dash (-) response means no test result.

[5] = system: annual bluegrass (Poa annua); test: Test C pre-/postemergence plant response
Description: as §2, §3

[6] = system: blackgrass (Alopecurus myosuroides); test: Test C pre-/postemergence plant response
Description: as §2, §3

[7] = system: canarygrass (Phalaris minor); test: Test C pre-/postemergence plant response
Description: as §2, §3

[8] = system: green foxtail (Setaria viridis); test: Test C pre-/postemergence plant response
Description: as §2, §3

[9] = system: pigweed (Amaranthus retroflexus); test: Test C pre-/postemergence plant response
Description: as §2, §3

[10] = system: spring barley (Hordeum vulgare); test: Test C pre-/postemergence plant response
Description: as §2, §3

[11] = system: spring wheat (Triticum aestivum); test: Test C pre-/postemergence plant response
Description: as §2, §3

[12] = system: wild mustard (Sinapis arvensis); test: Test C pre-/postemergence plant response
Description: as §2, §3

[13] = system: windgrass (Apera spica-venti); test: Test C pre-/postemergence plant response
Description: as §2, §3

[14] = system: winter barley (Hordeum vulgare); test: Test C pre-/postemergence plant response
Description: as §2, §3

[15] = system: winter wheat (Triticum aestivum); test: Test C pre-/postemergence plant response
Description: as §2, §3

[16] = Postemergence, 31 g ai/ha, 0 to 100 scale, 0 no effect, 100 complete control
[17] = Postemergence, 125 g ai/ha, 0 to 100 scale, 0 no effect, 100 complete control
[18] = Preemergence, 31 g ai/ha, 0 to 100 scale, 0 is no effect, 100 is complete control
[19] = Preemergence, 125 g ai/ha, 0 to 100 scale (0 no effect, 100 complete control)
[20] = Postemergence, 8 g ai/ha, scale 0 to 100, 0 no effect, 100 complete control
[21] = Postemergence, 16 g ai/ha, scale 0 to 100, 0 no effect, 100 complete control
[22] = Postemergence, 31 g ai/ha, scale 0 to 100, 0 no effect, 100 complete control
[23] = Postemergence, 62 g ai/ha, scale 0 to 100, 0 no effect, 100 complete control
[24] = Preemergence, 8 g ai/ha, scale 0 to 100 (0 no effect, 100 complete control)
[25] = Preemergence, 16 g ai/ha, scale 0 to 100 (0 no effect, 100 complete control)
[26] = Preemergence, 31 g ai/ha, scale 0 to 100 (0 no effect, 100 complete control)
[27] = Preemergence, 62 g ai/ha, scale 0 to 100, 0 no effect, 100 complete control

CCCc1cc(-c2ccc(Cl)cc2)nn1-c1c(O)cnn(C)c1=O [Compound 43]
95: Plant response rating, Canarygrass [7, 23] | Plant response rating, Canarygrass [7, 27] | Plant response rating, Foxtail, Green [8, 21]
30: Plant response rating, Wheat, Spring [11, 26] | Plant response rating, Windgrass [13, 20]
15: Plant response rating, Bluegrass [5, 23] | Plant response rating, Wheat, Spring [11, 21] | Plant response rating, Barley, Winter [14, 21]
75: Plant response rating, Ryegrass, Italian [4, 20] | Plant response rating, Canarygrass [7, 21] | Plant response rating, Canarygrass [7, 26] | Plant response rating, Foxtail, Green [8, 24]
100: Plant response rating, Foxtail, Giant [1, 17] | Plant response rating, Foxtail, Giant [1, 19] | Plant response rating, Ryegrass, Italian [4, 22] | Plant response rating, Ryegrass, Italian [4, 23] | Plant response rating, Blackgrass [6, 22] | Plant response rating, Blackgrass [6, 23] | Plant response rating, Blackgrass [6, 27] | Plant response rating, Foxtail, Green [8, 25] | Plant response rating, Foxtail, Green [8, 26] | Plant response rating, Foxtail, Green [8, 27] | Plant response rating, Windgrass [13, 27]
65: Plant response rating, Canarygrass [7, 20] | Plant response rating, Canarygrass [7, 25] | Plant response rating, Wheat, Spring [11, 27] | Plant response rating, Barley, Winter [14, 27] | Plant response rating, Wheat, Winter [15, 23]
80: Plant response rating, Foxtail, Giant [1, 16] | Plant response rating, Wheat [3, 17] | Plant response rating, Windgrass [13, 26] | Plant response rating, Barley, Winter [14, 23]
40: Plant response rating, Wheat [3, 16] | Plant response rating, Barley, Winter [14, 22] | Plant response rating, Wheat, Winter [15, 22]
50: Plant response rating, Canarygrass [7, 24] | Plant response rating, Barley, Spring [10, 22] | Plant response rating, Barley, Winter [14, 26]
25: Plant response rating, Bluegrass [5, 27] | Plant response rating, Mustard, Wild [12, 23] | Plant response rating, Windgrass [13, 25] | Plant response rating, Wheat, Winter [15, 21]
85: Plant response rating, Blackgrass [6, 24] | Plant response rating, Canarygrass [7, 22]
90: Plant response rating, Foxtail, Giant [1, 18] | Plant response rating, Blackgrass [6, 20] | Plant response rating, Blackgrass [6, 25] | Plant response rating, Foxtail, Green [8, 20] | Plant response rating, Barley, Spring [10, 23] | Plant response rating, Wheat, Spring [11, 23]
98: Plant response rating, Ryegrass, Italian [4, 21] | Plant response rating, Ryegrass, Italian [4, 25] | Plant response rating, Ryegrass, Italian [4, 26] | Plant response rating, Ryegrass, Italian [4, 27] | Plant response rating, Blackgrass [6, 21] | Plant response rating, Blackgrass [6, 26] | Plant response rating, Foxtail, Green [8, 22] | Plant response rating, Foxtail, Green [8, 23]
60: Plant response rating, Ryegrass, Italian [4, 24] | Plant response rating, Barley, Spring [10, 27] | Plant response rating, Wheat, Spring [11, 22] | Plant response rating, Windgrass [13, 21] | Plant response rating, Windgrass [13, 22] | Plant response rating, Windgrass [13, 23]
35: Plant response rating, Barley, Spring [10, 21] | Plant response rating, Barley, Spring [10, 26]
70: Plant response rating, Wheat [3, 19] | Plant response rating, Wheat, Winter [15, 27]
0: Plant response rating, Velvetleaf [2, 16] | Plant response rating, Velvetleaf [2, 17] | Plant response rating, Velvetleaf [2, 18] | Plant response rating, Velvetleaf [2, 19] | Plant response rating, Bluegrass [5, 20] | Plant response rating, Bluegrass [5, 21] | Plant response rating, Bluegrass [5, 22] | Plant response rating, Bluegrass [5, 24] | Plant response rating, Bluegrass [5, 25] | Plant response rating, Pigweed [9, 20] | Plant response rating, Pigweed [9, 21] | Plant response rating, Pigweed [9, 22] | Plant response rating, Pigweed [9, 23] | Plant response rating, Pigweed [9, 24] | Plant response rating, Pigweed [9, 25] | Plant response rating, Pigweed [9, 26] | Plant response rating, Barley, Spring [10, 24] | Plant response rating, Wheat, Spring [11, 20] | Plant response rating, Wheat, Spring [11, 24] | Plant response rating, Wheat, Spring [11, 25] | Plant response rating, Mustard, Wild [12, 20] | Plant response rating, Mustard, Wild [12, 21] | Plant response rating, Mustard, Wild [12, 22] | Plant response rating, Mustard, Wild [12, 24] | Plant response rating, Mustard, Wild [12, 25] | Plant response rating, Mustard, Wild [12, 26] | Plant response rating, Mustard, Wild [12, 27] | Plant response rating, Barley, Winter [14, 24] | Plant response rating, Wheat, Winter [15, 24] | Plant response rating, Wheat, Winter [15, 25]
5: Plant response rating, Barley, Winter [14, 20] | Plant response rating, Wheat, Winter [15, 20]
20: Plant response rating, Wheat [3, 18] | Plant response rating, Pigweed [9, 27] | Plant response rating, Barley, Spring [10, 20] | Plant response rating, Barley, Spring [10, 25] | Plant response rating, Barley, Winter [14, 25] | Plant response rating, Wheat, Winter [15, 26]
